Laboratory results published in US7723070B2, “Overexpression of aminoacyl-tRNA synthetases for efficient production of engineered proteins containing amino acid analogues” (California Institute of Technology, priority 2000, dated 2010).
Entries after “also recorded” stand apart in the source; their conditions may differ.

Biological target: T1, methionyl tRNA synthetase (MetRS) (Escherichia coli, UniProt P00959)
T1 sequence (P00959 1-548 limits assumed): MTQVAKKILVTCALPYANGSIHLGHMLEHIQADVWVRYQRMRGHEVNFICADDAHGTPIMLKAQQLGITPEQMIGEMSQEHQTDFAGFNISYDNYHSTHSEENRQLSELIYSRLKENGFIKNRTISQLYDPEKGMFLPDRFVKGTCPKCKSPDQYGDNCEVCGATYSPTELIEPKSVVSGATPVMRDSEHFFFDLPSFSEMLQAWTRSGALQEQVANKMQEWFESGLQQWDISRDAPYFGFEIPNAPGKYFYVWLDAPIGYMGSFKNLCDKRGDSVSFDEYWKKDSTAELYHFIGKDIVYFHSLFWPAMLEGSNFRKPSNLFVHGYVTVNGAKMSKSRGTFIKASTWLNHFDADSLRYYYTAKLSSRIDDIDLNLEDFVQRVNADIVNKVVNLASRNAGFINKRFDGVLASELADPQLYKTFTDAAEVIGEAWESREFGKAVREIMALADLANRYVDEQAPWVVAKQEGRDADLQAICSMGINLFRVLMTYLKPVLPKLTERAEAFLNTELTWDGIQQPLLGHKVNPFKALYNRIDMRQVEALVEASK
Assay: ATP-PPi exchange assay: activation of methionine and methionine analogues by MetRS
Assay type: biochemical, E. coli
Parameters: The fully active, truncated form of methionyl tRNA synthetase (MetRS) was purified from overnight cultures of JM101 cells carrying the plasmid pGG3; made in house; host or cells: E. coli JM101 carrying plasmid pGG3
Settings: for fold lower kcat/Km (less efficiently activated) than methionine: relative to methionine
Text: The fully active, truncated form of methionyl tRNA synthetase (MetRS) was purified from overnight cultures of JM101 cells carrying the plasmid pGG3. (The plasmid, which encodes the tryptic fragment of MetRS, Ghosh, G.; Brunie, S.; Schulman, L. H. J. Biol. Chem. 1991, 266, 17136-17141). The enzyme was purified by size exclusion chromotography as previously described (Mellot, P.; Mechulam, Y.; LeCorre, D.; Blanquet, S.; Fayat, G. J. Mol. Biol. 1989, 208, 429). Activation of methionine analogues by MetRS was assayed via the amino-acid-dependent ATP-PPi exchange reaction, also as previously described (Mellot, P.; Mechulam, Y.; LeCorre, D.; Blanquet, S.; Fayat, G. J. Mol. Biol. 1989, 208, 429; Blanquet, S.; Fayat, G.; Waller, J.-P. Eur. J. Biochem. 1974, 44, 343; Ghosh, G.; Pelka, H.; Schulman, L. H. Biochemistry 1990, 29, 2220). The assay, which measures the ^32P-radiolabeled ATP formed by the enzyme-catalyzed exchange of ^32P-pyrophosphate (PPi) into ATP, was conducted in 150 μl of reaction buffer (pH 7.6, 20 mM imidazole; 0.1 mM EDTA, 10 mM β-mercaptoethanol, 7 mM MgCl2, 2 mM ATP, 0.1 mg/ml BSA, and 2 mM PPi (in the form of sodium pyrophosphate with a specific activity of approximately 0.18 TBq/mole)). […] Kinetic parameters for analogue 5 were obtained with an enzyme concentration of 75 nM and analogue concentrations of 100 μM to 10 mM. Parameters for methionine were obtained by using concentrations ranging from 10 μM to 1 mM. […] Aliquots of 20 μl were removed from the reaction mixture at various time points and were quenched in 0.5 ml of a solution comprising 200 mM PPi, 7% w/v HClO4, and 3% w/v activated charcoal. The charcoal was rinsed twice with 0.5 mL of a 10 mM PPi, 0.5% HClO4 solution and was then resuspended in 0.5 mL of this solution and counted via liquid scintillation methods. Kinetic constants were calculated by nonlinear regression analysis.
The fully active, truncated form of MetRS was purified from overnight cultures of JM101 cells carrying the plasmid pGG3. The enzyme was purified by size exclusion chromotography as previously described (P. Mellot, Y. Mechulam, D. LeCorre, S. Blanquet, G. Fayat, J. Mol. Biol. 1989, 208, 429-443). Activation of methionine analogues by MetRS was assayed at 25° C. via the amino acid-dependent ATP-PPi exchange reaction, also as described in Example I (G. Ghosh, H. Pelka, L. H. Schulman, Biochemistry 1990, 29, 2220-2225). […] Kinetic parameters for analogue 5 were obtained with an enzyme concentration of 50 nM and analogue concentrations of 100 μM to 10 mM. Kinetic parameters for analogue 11 were determined using an enzyme concentration of 50 nM and analogue concentrations ranging from 750 μM to 20 mM. Kinetic parameters for analogues 4, 7, 8, and 12 were obtained with an enzyme concentration of 50 or 75 nM and analogue concentrations ranging from 5 to 70 mM. Parameters for methionine were obtained by using concentrations ranging from 10 μM to 1 mM. […] Kinetic constants were calculated by nonlinear regression analysis.
The fully active, truncated form of MetRS was purified from overnight cultures of E. coli JM101 cells carrying the plasmid pGG3 (Kim, H. Y.; Ghosh, G.; Schulman, L. H.; Brunie, S.; Jakubowski, H. Proc. Natl. Acad. Sci. USA 1993, 90, 11553-11557), by using size exclusion methods previously reported (Mellot, P.; Mechulam, Y.; LeCorre, D.; Blanquet, S.; Fayat, G. J. Mol. Biol. 1989, 208, 429-443). Purified enzyme solutions (in 10 mM phosphate, pH 6.7, 10 mM (β-mercaptoethanol) were concentrated to at least 3 μM prior to their storage in 40% glycerol at −20° C. Concentrations of enzyme stocks were determined by the Bradford method, using samples of MetRS quantified by amino acid analysis as standards.

[1] = 75 nM enzyme, 5 mM L-isomer, 20 minutes
[2] = ATP-PPi exchange, purified truncated MetRS

Compound	rate/level of PPi exchange (activation by MetRS), in words [1]	fold lower kcat/Km (less efficiently activated) than methionine	further results
2-butynylglycine [Analogue 11]	very slow exchange of PPi; also recorded: slow exchange of PPi	13825 fold	Km [2]: 38.6 mM; kcat [2]: 1.51 ± 0.5 s⁻¹
C=CCCC(N)C(=O)O (racemic) [Analogue 2, DL-2-amino-5-hexenoic acid]	rates similar to that of norleucine (9); also recorded: several-fold lower than methionine	1850 fold	–
C#CCCC(N)C(=O)O (racemic) [Analogue 3, DL-homopropargylglycine]	rates similar to that of norleucine (9); also recorded: several-fold lower than methionine	500 fold	–
C/C=C\CC(N)C(=O)O (racemic) [Analogue 4, cis-2-amino-4-hexenoic acid]	does not cause measurable exchange of PPi; also recorded: very slow exchange of PPi	–	–
C/C=C/CC(N)C(=O)O (racemic) [Analogue 5, trans-2-amino-4-hexenoic acid]	very slow exchange of PPi; also recorded: neither recognized efficiently; also recorded: slow exchange of PPi	4700 fold	–
CCCCCC(N)C(=O)O (racemic) [Analogue 7, DL-2-aminoheptanoic acid]	very slow exchange of PPi	–	–
CSCC[C@H](N)C(=O)O [Analogue 1, L-methionine, reference compound]	–	–	amount of PPi exchanged at a reaction time of 20 minutes [1]: 9 mmol
CCC[C@H](N)C(=O)O [Analogue 8, L-norvaline]	very slow exchange of PPi	–	–
CCCC[C@H](N)C(=O)O [Analogue 9, L-norleucine]	–	1050 fold	–
C=CCC(N)C(=O)O (stereo not shown) [Analogue 12, allylglycine]	very slow exchange of PPi	–	–
